According to patent US9101559B2, “Leukemic cell CNS infiltration controlled by notch-induced chemotaxis” (New York University, priority 2009, dated 2015):

Columns and labels:
Hes1 = test: Transcription of Notch target gene Hes1 in CEM cells after GSI treatment; format: cell-based, human; conditions: CEM cells (T-ALL cell line), 1 nM, three days
Method: (§1) FIGS. 9A-9D show γ-secretase-inhibitor mediated suppression of CCR7 expression. CEM cells (T-ALL cell line) were treated with either Compound E (Comp E) (1 nM) or DBZ (1 nM) for three days. FIG. 9A is a panel of western blots showing the disappearance of the activated N1-IC protein in CEM cells following γ-secretase inhibitor (GSI) treatment. β-actin immunoreactivity is shown as a loading control. […] Error bars define standard deviation from mean.
(§2) RNA was isolated using RNeasy Plus Mini Kit (Qiagen, Valencia, Calif.) columns and used to synthesize cDNA with the SuperScript First-Strand Kit (Invitrogen, Carlsbad, Calif.). Real time PCR was performed using iQ SYBR Green Supermix and an iCycler (Bio-Rad, Hercules, Calif.). Relative expression was determined from cycle threshold (CT) values and was normalized using β-actin as an internal control.

Dtx1 = test: Transcription of Notch target gene Dtx1 in CEM cells after GSI treatment; format: cell-based, human; conditions: CEM cells (T-ALL cell line), 1 nM, three days
Method: as §1, §2

activated N1-IC protein = test: Western blot of activated N1-IC protein in CEM cells after γ-secretase inhibitor treatment; format: cell-based, human; conditions: CEM cells (T-ALL cell line), 1 nM, three days
Method: as §1

human CCR7 = test: CCR7 expression in T-ALL cell lines after GSI treatment; format: cell-based; conditions: for transcription of human CCR7: CEM cells (T-ALL cell line), 1 nM, three days; for CCR7 mRNA and protein expression: T-ALL cell lines, addition of γ-secretase inhibitors
Method: as §1, §2
To further correlate Notch 1 activation and CCR7 expression, T-ALL cell lines harboring Notch 1 activating mutations and primary T-ALL samples were analyzed. Strikingly, surface CCR7 was expressed in 80% (4/5) of T-ALL lines (FIG. 8A) and in 73% (8/11) of peripheral blood from primary T-ALL samples (FIG. 8B; #114, #358, and #479). […] To obtain a preliminary estimate of the importance of CCR7 expression in CNS infiltration, two human T-ALL lines were selected (FIG. 8A), one expressing CCR7 (CEM/CCR7^pos) and one deficient in CCR7 expression (DND41/CCR7^neg). Both cell lines were infected using a luciferase-expressing lentivirus. To study disease induction and progression, the cells were transplanted into lymphoid Rag2−/− γc−/− host animals. Transplantation of an identical number of leukemia cells led to distinct survival patterns as host animals which received CEM/CCR7^pos cells succumbed to the leukemic disease earlier that the ones receiving the DND41/CCR7^neg cells (FIG. 3A). Using live animal bioluminescent imaging, a higher tumor load in mice that received the […] cell line was observed (FIG. 3B). Most importantly, the brain and spinal cord of CEM/CCR7^pos-transplanted hosts (but not the DND41/CCR7^neg) were infiltrated by T-ALL cells (FIG. 3C). Further histopathological analysis confirmed the localization of the infiltrating cells in leptomeningeal spaces (FIG. 3D).

Structure (SMILES) | transcription of Hes1 (Hes1) | transcription of Dtx1 (Dtx1) | activated N1-IC protein (western blot) (activated N1-IC protein) | transcription of human CCR7 (human CCR7) | CCR7 mRNA and protein expression (human CCR7)
C[C@H](NC(=O)Cc1cc(F)cc(F)c1)C(=O)N[C@H]1N=C(c2ccccc2)c2ccccc2N(C)C1=O [Compound E] | efficiently suppressed | efficiently suppressed | disappearance | suppressed | significant down-regulation
C[C@H](NC(=O)Cc1cc(F)cc(F)c1)C(=O)N[C@@H]1C(=O)N(C)c2ccccc2-c2ccccc21 [DBZ] | efficiently suppressed | efficiently suppressed | disappearance | suppressed | significant down-regulation
